Reference: patent US20170224764A1, “THERAPEUTIC TARGETING OF MITOCHONDRIA TO PREVENT OSTEOARTHRITIS” (Cornell University, priority 2016, published 2017)
Entries after “also recorded” stand apart in the source; their conditions may differ.

Legend:
Assay type in all cases: cell-based, bovids
[1] = test system: chondrocytes in cartilage explants; assay: Apoptosis, activated caspase 3/7 staining of impacted cartilage explants; conditions: Example 6, 1 μM
Description: (§1) Tissue harvest. Full thickness cartilage explants were harvested from the knee joints of healthy bovids (n=8 animals, 1-3 days of age) within 48 hours of sacrifice using an 8 mm biopsy punch. Specimens were rinsed in phosphate-buffered saline (PBS), trimmed to a uniform thickness of 3 mm from the articular surface using a custom jig, and placed in cartilage explant media (phenol free DMEM containing 1% FBS, HEPES 0.025 ml/ml, penicillin 100 U/mL, streptomycin 100 U/mL and 0.1 g/L glucose).
(§2) Rapid impact injury model. Explants were subjected to injury using rapid-impact model or served as unimpacted controls (as described in Example 3). Briefly, explants were positioned in a well containing PBS under the plane-ended tip of a spring-loaded impacting device. The impactor was used to deliver a single, rapid cycle of unconfined axial compression (24.0±1.4 MPa peak stress; 53.8±5.3 GPa/s peak stress rate). Impact force was measured at 50 kHz by a load cell (PCBPiezotronics, Depew, N.Y.) attached to the impactor tip. Voltage from the load cell was recorded with a custom LabVIEW program (NI, Austin Tex.). The impact magnitude was adjusted by setting the deflection of the impactor's internal spring and mechanical parameters for each impact were calculated (as described in Example 3).
D-Arg-2′,6′-Dmt-Lys-Phe-NH2 (SS-31) treatment. […]

[2] = test system: chondrocytes in cartilage explants; assay: Chondrocyte viability, live/dead staining (calcein AM / ethidium homodimer) of impacted cartilage explants, confocal microscopy; conditions: 1 μM
Description: (§3) Cartilage was harvested from the knee joints of 4 neonatal bovids (n=30 explants). Cartilage explants were subjected to unconfined compression (24.0±1.4 MPa peak stress; 53.8±5.3 GPa/s peak stress rate) using a validated single-impact subcritical damage model.
(§4) Cartilage explants were treated with 1 μM D-Arg-Dmt-Lys-Phe-NH2 (SS-31) immediately after injury (T0), one hour following injury (T1), or 6 hours after injury (T6), and then cultured for 7 days. Cartilage conditioned media (CCM) was sampled at T0, T1, T6, and every 24 hours after injury (T24-168) for 7 days.
(§5) Explants were stained with calcein AM and ethidium homodimer (for live and dead cells, respectively) to assess chondrocyte viability at T24 and T168 using confocal microscopy. Live, dead and total cell numbers were quantified in z-stacked digital images using a custom ImageJ macro. To quantify cell membrane damage, CCM was analyzed using a colorimetric lactate dehydrogenase (LDH) activity assay, and cumulative cell membrane damage over the 7-day incubation period was determined for each explant.
as §1, §2
D-Arg-2′,6′-Dmt-Lys-Phe-NH2 (SS-31) treatment. Following injury, explants were cut perpendicular to the articular surface into 2 hemicylinders using a custom cutting jig to ensure uniform geometry. Cartilage was kept moist at all times and each cut was performed with a fresh (unused) and lubricated cutting instrument. Handling of the experimental tissues was strictly minimized at each step. Explants were placed directly into an individual well of a 24-well untreated tissue culture plate containing a known volume (1.5 ml) of cartilage explant media. Cartilage hemicylinders were randomly assigned to one of 10 treatment groups (n=6/group, FIG. 22). Injured (I) and uninjured control (C) explants in the non-treated groups (ITno, CTno) were placed into wells containing only media. Explants in the time zero treatment groups (IT0, CT0) were placed directly into media containing 1 μM D-Arg-2′,6′-Dmt-Lys-Phe-NH2(SS-31). Explants in the one-hour treatment groups (IT1, CT1) were placed into media only and D-Arg-2′,6′-Dmt-Lys-Phe-NH2(1 μM) was added to the wells 1 hour after impact. Explants in the six-hour treatment groups (IT6, CT6) were placed into media only and D-Arg-2′,6′-Dmt-Lys-Phe-NH2 (1 μM) was added 6 hours after impact. Explants in the twelve-hour treatment groups (IT12, CT12) were placed into media only and D-Arg-2′,6′-Dmt-Lys-Phe-NH2 (1 μM) was added 12 hours after impact. Explants were maintained under standard tissue culture conditions (36° C. and 21% O2) for 7 days. Medium was sampled at 1, 6, and 12 hours, and at 3, 5, and 7 days after impact, and stored at −80° C. until biochemical assays were performed. […]

cartilage explants [3] = assay: Cartilage matrix degradation, GAG loss into the media by DMMB assay; conditions: 1 μM
Description: as §3
[…] Cartilage conditioned media (CCM) was sampled at T0, T1, T6, and every 24 hours after injury (T24-168) for 7 days.
Cartilage matrix degradation was quantified by measuring GAG loss into the media via DMMB assay.
as §1, §2
D-Arg-2′,6′-Dmt-Lys-Phe-NH2 (SS-31) treatment. […] Cartilage was kept moist at all times and each cut was performed with a fresh (unused) and lubricated cutting instrument. Handling of the experimental tissues was strictly minimized at each step. Explants were placed directly into an individual well of a 24-well untreated tissue culture plate containing a known volume (1.5 ml) of cartilage explant media. Cartilage hemicylinders were randomly assigned to one of 10 treatment groups (n=6/group, FIG. 22). Injured (I) and uninjured control (C) explants in the non-treated groups (ITno, CTno) were placed into wells containing only media. […]
Cartilage GAG loss. To determine if D-Arg-2′,6′-Dmt-Lys-Phe-NH2 could provide structural protection after impact injury, the loss of glycosaminoglycan (GAG) was determined by routine 1,9-dimethyl-methylene blue dye binding (DMMB) assay. […] Total GAG content was read […], and expressed as the total GAG released into cartilage conditioned media over the culture period per μg dry weight of cartilage. […]

cartilage explants [4] = assay: Cell membrane damage, lactate dehydrogenase (LDH) activity assay on cartilage conditioned media; conditions: 1 μM
Description: as §3, §4, §5, §1
Rapid impact injury model. Explants were subjected to injury using rapid-impact model or served as unimpacted controls (as described in Example 3). […] Impact force was measured at 50 kHz by a load cell (PCBPiezotronics, Depew, N.Y.) attached to the impactor tip. Voltage from the load cell was recorded with a custom LabVIEW program (NI, Austin Tex.). The impact magnitude was adjusted by setting the deflection of the impactor's internal spring and mechanical parameters for each impact were calculated (as described in Example 3). […]

Substance: D-Arg-2′,6′-Dmt-Lys-Phe-NH2
- impact-induced apoptosis (caspase 3/7 positive cells) at 1 day ([1]; 1 day after cartilage injury, p=0.007): prevented impact-induced apoptosis; also recorded: equivalent to uninjured controls
- impact-induced apoptosis (caspase 3/7 positive cells) at 7 days ([1]; 7 days after cartilage injury, p=0.04): prevented impact-induced apoptosis; also recorded: equivalent to uninjured controls
- chondrocyte death at 24 hours ([2]; Example 2, treatment at 0, 1 or 6 hours after impact, versus untreated impacted cartilage): significantly reduced
- chondrocyte viability / death in injury+treatment groups compared with un-injured controls ([2]; Example 6, day 1, treatment at 0, 1 or 6 hours): equivalent to uninjured controls
- reduction in impact-induced chondrocyte death, treated versus untreated explants ([2]; Example 6, day 1, treatment at 0, 1 or 6 hours after impact): over 50%
- cell death at 1 day post-injury ([2]; Example 6, injured groups treated at 0, 1 or 6 hours (IT0, IT1, IT6) versus untreated injured): potently reduced cell death; also recorded: effective at preventing chondrocyte death
- effect of treatment time on cell death ([2]; Example 6, injury groups treated at 0, 1 or 6 hours, p=0.93): no effect of treatment time
- chondrocyte death (% dead cells) compared with untreated, injured controls ([2]; Example 6, treatment at 0, 1, 6 or 12 hours after impact): reduced chondrocyte death; also recorded: reduced as compared to untreated, injured controls
- impact-induced cell death on day 7 ([2]; Example 6, treatment immediately, at 1 hour or at 6 hours after impact): prevented impact-induced cell death to a similar degree; also recorded: effective at preventing chondrocyte death
- impact-induced GAG loss into the media (cartilage explants [3]; Example 2, treatment at 0, 1 or 6 hours after impact, 96 hr post impact): decreased GAG loss
- decrease of impact-induced GAG loss (cartilage explants [3]; Example 6, cumulative GAG loss, p=0.002): ~30%
- cartilage matrix degeneration (GAG loss into the media) compared with uninjured controls (cartilage explants [3]; Example 6, treatment at 0, 1 or 6 hours after impact): equivalent to uninjured controls
- cartilage matrix degeneration (GAG loss into the media) compared with untreated, injured controls (cartilage explants [3]; Example 6, treatment at 12 hours after impact): reduced cartilage matrix degeneration
- cumulative cell membrane damage (LDH activity) over the 7 days following injury (cartilage explants [4]; Example 2, treated versus untreated impacted cartilage): prevents cell membrane damage; also recorded: lower in treated than untreated cartilage
- cumulative cell membrane damage, LDH activity in cartilage conditioned media over the 7 days following injury (cartilage explants [4]; Example 6, injured, treated versus injured, untreated cartilage, p=0.0005): approximately twofold lower; also recorded: lower than injured, untreated explants
- cumulative LDH in uninjured controls (cartilage explants [4]; Example 6, uninjured, treated versus untreated controls, p=0.05): lower cumulative LDH than untreated controls; also recorded: protective effect against cell membrane damage
